Entries after “also recorded” stand apart in the source; their conditions may differ.
Columns and labels:
SARS-CoV-2 3CL^pro [1] = biological target: T1, SARS-CoV-2 3CL^pro (Severe acute respiratory syndrome coronavirus 2, UniProt P0DTD1); type: biochemical
[2] = Phase I metabolic stability in human liver microsomes
[3] = Gastrointestinal stability in simulated gastric fluid; type: in vitro ADME; details: 20 μM, 37 °C, in 90 min
SARS-CoV-2 3CL^pro [4] = biological target: T1, SARS-CoV-2 3CL^pro; type: biochemical; remark: listed apart in the source
[5] = Phase II metabolic stability; details: human liver microsomes, in the presence of UDPGA
[6] = Plasma stability in human plasma; type: in vitro ADME; details: 37 °C, up to 12 h

| Compound | inhibitory activity against SARS-CoV-2 3CLpro, in words (SARS-CoV-2 3CL^pro [1]) | other results |
| --- | --- | --- |
| CC(=O)OCC1Cc2c(-c3ccccn3)ccc(C)c2-c2c(O)ccc(C)c21 (stereo not shown) [Compound A8] | significant loss of potency | – |
| COc1ccc(-c2ccccn2)c2c1-c1c(O)ccc(C)c1C(COC(C)=O)C2 (stereo not shown) [Compound A9] | significant loss of potency | – |
| CC(=O)OCC1Cc2c(-c3ccccn3)ccc(F)c2-c2c(O)ccc(C)c21 (stereo not shown) [Compound A10] | significant loss of potency | – |
| CC(=O)OCC1Cc2c(-c3ccccn3)ccc(Br)c2-c2c(O)ccc(C)c21 (stereo not shown) [Compound A12] | significant loss of potency | – |
| CC(=O)OCC1Cc2c(-c3ncccc3C)cccc2-c2c(O)ccc(C)c21 (stereo not shown) [Compound A15] | comparable inhibitory activities with A1 | – |
| CC(=O)OCC1Cc2c(-c3cc(C)ccn3)cccc2-c2c(O)ccc(C)c21 (stereo not shown) [Compound A16] | comparable inhibitory activities with A1 | – |
| CC(=O)OCC1Cc2c(-c3ccc(F)cn3)cccc2-c2c(O)ccc(C)c21 (stereo not shown) [Compound A18] | comparable inhibitory activities with A1 | – |
| CC(=O)OCC1Cc2c(-c3ccc(Cl)cn3)cccc2-c2c(O)ccc(C)c21 (stereo not shown) [Compound A19] | increased inhibitory activities | – |
| CC(=O)OCC1Cc2c(-c3ccc(Br)cn3)cccc2-c2c(O)ccc(C)c21 (stereo not shown) [Compound A20] | increased inhibitory activities | – |
| CC(=O)OCC1Cc2c(cccc2-c2nccc3ccccc23)-c2c(O)ccc(C)c21 (stereo not shown) [Compound A21] | increased inhibitory activities | – |
| CC(=O)OCC1Cc2c(-c3cc4ccccc4cn3)cccc2-c2c(O)ccc(C)c21 (stereo not shown) [Compound A22] | increased inhibitory activities | – |
| CC(=O)OCC1Cc2c(-c3ccc4ccccc4n3)cccc2-c2c(O)ccc(C)c21 (stereo not shown) [Compound A23] | increased inhibitory activities | – |
| CC(=O)OCC1Cc2c(-c3ncccn3)cccc2-c2c(O)ccc(C)c21 (stereo not shown) [Compound A24] | no inhibitory activity | – |
| CC(=O)OCC1Cc2c(-c3ccncn3)cccc2-c2c(O)ccc(C)c21 (stereo not shown) [Compound A25] | no inhibitory activity | – |
| CC(=O)OCC1Cc2c(cccc2-n2cccn2)-c2c(O)ccc(C)c21 (stereo not shown) [Compound A26] | no inhibitory activity | – |
| CC(=O)OCC1Cc2c(cccc2-c2ncnc3c2ncn3CC2CC2)-c2c(O)ccc(C)c21 (stereo not shown) [Compound A27] | no inhibitory activity | – |
| C=CCn1cnc2c(-c3cccc4c3CC(COC(C)=O)c3c(C)ccc(O)c3-4)ncnc21 (stereo not shown) [Compound A28] | no inhibitory activity | – |
| OCC1Cc2c(-c3cc(-c4ccccc4)ccn3)cccc2-c2c(O)ccc(-c3ccc(Br)cc3)c21 (stereo not shown) [Compound C1, 1-(4-bromophenyl)-10-(hydroxymethyl)-8-(4-phenylpyridin-2-yl)-9,10-dihydrophenanthren-4-ol] | – | metabolism by human cytochrome P450 enzymes (hCYPs), in words [2]: hardly metabolized; gastrointestinal stability in SGF and SIF [3]: good gastrointestinal stabilities; Inhibition mode (SARS-CoV-2 3CL^pro [4]): Mixed; inhibition manner (SARS-CoV-2 3CL^pro [4]): mixed-inhibition; inhibitory effects against CYPs (major CYPs in HLMs): moderate inhibitory effects; metabolism by human hepatic UDP-glucuronosyltransferases (hUGTs), in words [5]: hardly metabolized; plasma stability, in words [6]: prominent; also recorded: excellent plasma stability |
| O=Cc1ccnc(-c2cccc3c2CC(CO)c2c(-c4ccc(Br)cc4)ccc(O)c2-3)c1 (stereo not shown) [Compound C2, 2-(8-(4-bromophenyl)-5-hydroxy-9-(hydroxymethyl)-9,10-dihydrophenanthren-1-yl)isonicotinaldehyde] | – | metabolism by human cytochrome P450 enzymes (hCYPs), in words [2]: readily metabolized; gastrointestinal stability in SGF and SIF [3]: good gastrointestinal stabilities; Inhibition mode (SARS-CoV-2 3CL^pro [4]): Mixed; inhibition manner (SARS-CoV-2 3CL^pro [4]): mixed-inhibition; metabolism by human hepatic UDP-glucuronosyltransferases (hUGTs), in words [5]: moderately metabolized |
| OCC1Cc2c(-c3ccc(F)cn3)cccc2-c2c(O)ccc(-c3ccc(Br)cc3)c21 (stereo not shown) [Compound C4, 1-(4-bromophenyl)-8-(5-fluoropyridin-2-yl)-10-(hydroxymethyl)-9,10-dihydrophenanthren-4-ol] | slight decreases in the inhibitory activity | – |
| OCC1Cc2c(-c3ccc(Cl)cn3)cccc2-c2c(O)ccc(-c3ccc(Br)cc3)c21 (stereo not shown) [Compound C5, 1-(4-bromophenyl)-8-(5-chloropyridin-2-yl)-10-(hydroxymethyl)-9,10-dihydrophenanthren-4-ol] | slight decreases in the inhibitory activity | – |
